In test [1] the target is T1, PDC-3 (Pseudomonas aeruginosa, UniProt P24735, T105A).
T1 construct: The PDC-3 expression construct was created in a similar manner but starting with a previously described pBC SK(−) vector; made in house; host or cells: E. coli BL21-CodonPlus (DE3)-RP, pET24a(+)
Kind of test: Off-rate (koff) by jump-dilution, PDC-3. In kind it is biochemical. The procedure: (§1) The off-rates (koff) were determined using a jump-dilution method ([44]). […] The enzyme was serially diluted to 1 nM, and 100 μM nitrocefin was added to initiate the reaction. Recovery progress covers were recorded at 482 nm. The koff value was determined by fitting the progress curves to a single exponential equation. The half-life was determined by dividing ln(2) by koff.

For test [2], the target named is T2, PDC-88 (Pseudomonas aeruginosa, UniProt P24735, DEL316-317/G27D/G391A/T105A/V205L/V356I).
T2 construct: NdeI 5′-[…]-3ʹ and BamHI 5ʹ-[…]-3ʹ; His tag removed) (N); made in house; host or cells: E. coli BL21-CodonPlus (DE3)-RP, pET24a(+)
The test is described as follows: biochemical. In kind it is biochemical. The procedure:
(§2) β-Lactamase kinetic and inhibitor constants were determined using an Agilent 8453 UV-Visible Spectrophotometer to record progress curves and determine initial rates and other kinetic parameters as appropriate. Reactions were carried out in 1× phosphate-buffered saline (PBS) (pH 7.4) at room temperature in a 0.2 cm path-length quartz cuvette (Hellma Analytics). Reads were taken every 10 s to minimize UV-mediated background hydrolysis.
(§3) Competitive inhibition assays were used to determine IC50 and Ki app. Nitrocefin (a reporter substrate), enzyme, and inhibitor were mixed, and initial velocities were determined. […] Inverse steady-state velocities (1/V0) were plotted against inhibitor concentration ([I]), forming a straight line. The y-intercept of this line was divided by the slope of the line to yield Ki app obs and IC50 values. Apparent Ki values (Ki app) were determined by correcting for the affinity of nitrocefin in the active site using equation 2:
(§4) (2) KI app= KI app{obs/1+[S]/KM NCF

In test [3] the target is T1, PDC-3. Kind of test: Thermal denaturation by circular dichroism, PDC-3. In kind it is binding. On the procedure: Competitive enzyme inhibitors can increase enzyme thermal stability as a result of binding to the active site.
Circular dichroism (CD) melting curve experiments were conducted using a J-815 spectropolarimeter (Jasco) and a Peltier effect temperature controller. Suprasil quartz cuvettes with a 0.1 cm path length (Hellma Analytics) were used in all experiments. […] Two-state behavior was observed, as indicated by identical curves at each wavelength. Equilibrium constants were calculated, and the melting temperature, Tm, was calculated from equilibrium denaturation data as previously described ([28]).
A general note: Circular dichroism is the unequal absorption of left and right circularly polarised light.

Test [4] addresses T1, PDC-3. The test is described as follows: Competitive inhibition assay with nitrocefin (Ki app, IC50), PDC-3. In kind it is biochemical. The procedure: as §2, §3, §4
Test [5] addresses T2, PDC-88. Kind of test: Off-rate (koff) by jump-dilution, PDC-88. The format is biochemical. On the procedure: as §1
The test system of test [6] is isogenic E. coli strains expressing PDC R2-loop deletion variants (PDC-88 to PDC-92). The test is described as follows: MIC changes across the five isogenic E. coli R2-loop deletion strains. In kind it is cell-based, Escherichia coli. Conditions: inhibitor at constant 4 µg/mL; R2-loop deletion variant strains. On the procedure:
Modal broth microdilution MICs (or median broth microdilution MICs where appropriate) were determined in accordance with Clinical and Laboratory Standards Institute (CLSI) M07 guidelines ([43]). Isogenic E. coli DH10B cells expressing the abovementioned plasmid-encoded PDC constructs were used. […] CLSI quality control strains Escherichia coli NCTC 13353, E. coli ATCC 35218, and Klebsiella pneumoniae ATCC 700603 were used during testing ([24]).

The target in test [7] is T2, PDC-88. The format is binding. On the procedure: Circular dichroism (CD) melting curve experiments were conducted using a J-815 spectropolarimeter (Jasco) and a Peltier effect temperature controller. Suprasil quartz cuvettes with a 0.1 cm path length (Hellma Analytics) were used in all experiments. […] Equilibrium constants were calculated, and the melting temperature, Tm, was calculated from equilibrium denaturation data as previously described ([28]).

As a reminder, the koff is the rate constant with which the complex falls apart. A lower koff goes with slow dissociation. As usually defined, the IC50 is the concentration needed to halve the response being measured.

Turning to `NCCN[C@H]1CC[C@H](CC(=O)N[C@H]2Cc3cccc(C(=O)O)c3OB2O)CC1` [TAN, taniborbactam], the off-rate constant (koff) turned out to be 0.0012 ± 0.0001 s⁻¹ at PDC-3 [1] and 0.0007 ± 0.0001 s⁻¹ on PDC-88 [5]. Moreover, the concentration for half-maximal inhibition (IC50) against PDC-88 [2] is 22 ± 2 nM; at PDC-3 [4] (nitrocefin reporter substrate, 5 min preincubation) it was 16 ± 2 nM. Besides, the Ki turned out to be 610 ± 60 nM on PDC-88 [2] and 660 ± 70 nM on PDC-3 [4] (nitrocefin reporter substrate). Also, the “Ki app lower compared to avibactam” value is 9 fold at PDC-88 [2] (PDC-88) and 4.1 fold on PDC-3 [4]. The “Ki app lower than TZB” value was found to be 95 fold on PDC-88 [2] (PDC-88) and 40 fold at PDC-3 [4]. Also, the “increase of Tm upon addition of inhibitor” value at PDC-3 [3] (PDC-3) is “+9 °C”; on PDC-88 [7] (PDC-88) it was “+7 °C”. Besides, the Tm on PDC-3 [3] (PDC-3 with inhibitor, circular dichroism, PDC-3 alone 52°C) was determined as 61 °C; on PDC-88 [7] (PDC-88 with inhibitor, circular dichroism, PDC-88 alone 53°C) it was 60 °C. The “restoration of FEP activity / susceptibility by inhibitor” value in test [6] is reported as “restoring FEP activity in all cases”.

The values above are taken from paper PMC12217481, “Structure and mechanism of taniborbactam inhibition of the cefepime-hydrolyzing, partial R2-loop deletion Pseudomonas-derived cephalosporinase variant PDC-88” (Antimicrobial Agents and Chemotherapy, 2025).
